Experimental data reported in patent US10172868B2, “Substituted quinazolines for inhibiting kinase activity” (NeuPharma, Inc., priority 2013, dated 2019).

Legend:
[1] = biological target: EGFR (ErbB1) (Homo sapiens (Human), UniProt P00533); test: Z'-LYTE kinase inhibition assay, EGFR; type: biochemical; conditions: read-out: % inhibition against EGFR (Compound at 0.041 μM)
Outline: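 Z'-LYTE FRET assay run with 1.1-5.25 ng EGFR and 2 μM peptide substrate in 50 mM HEPES pH 7.5, 10 mM MgCl2, 2 mM MnCl2, 1 mM EGTA, 1 mM DTT, 0.01% BRIJ-35, 1% DMSO. Kinase reaction 60 min at room temperature, then 60 min development; IC50 from 10-point 3-fold titrations.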

[2] = biological target: EGFR (ErbB1) T790M L858R (Homo sapiens (Human), UniProt P00533, L858R/T790M); test: Z'-LYTE kinase inhibition assay, EGFR L858R/T790M; type: biochemical; conditions: for inhibition at 0.0137 µM: read-out: % inhibition against EGFR L858R/T790M (Compound at 0.0137 μM); for IC50: read-out: IC50 against EGFR L858R/T790M
Outline: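 Z'-LYTE FRET peptide assay at 1% DMSO, 10-point 3-fold titrations; kinase/peptide mix in 50 mM HEPES pH 6.5, 0.01% BRIJ-35, 10 mM MgCl2, 1 mM EGTA, 0.02% NaN3. Kinase reaction ran 60 min at room temperature, followed by 60 min development and a fluorescence read. IC50 derived from the concentration series.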

[3] = test system: A431 cells; test: cells; conditions: Homo sapiens, A-431, 72 h, read-out: IC50 in A431 cells
[4] = test system: H1975 cells; test: Inhibition of cancer cell growth, MTT assay, H1975; conditions: Homo sapiens, NCI-H1975, 72 h, read-out: IC50 in H1975 cells
[5] = biological target: BTK (Homo sapiens (Human), UniProt Q06187); test: Z'-LYTE kinase inhibition assay, BTK; type: biochemical; conditions: compound at 0.041 μM; read-out: % inhibition against BTK
Experimental: Inhibitory activities of compounds against BTK, EGFR and EGFR mutants (EGFR L858R, EGFR T790M, EGFR L858R/T790M), FGFR1, FGFR2, JAK2, JAK3 and KDR were measured by Invitrogen using Z'-LYTE® Method as briefly described in the following.
Test Compounds are screened in 1% DMSO (final) in the well. For 10 point titrations, 3-fold serial dilutions are conducted from the starting concentration. All ATP Solutions are diluted to a 4× working concentration in Kinase Buffer (50 mM HEPES pH 7.5, 0.01% BRIJ-35, 10 mM MgCl2, 1 mM EGTA). Peptide/Kinase Mixtures are diluted to a 2× working concentration in the appropriate Kinase Buffers as described below.
(v) Peptide/Kinase Mixtures for Measurement of BTK:
The 2×BTK/Tyr 01 mixture is prepared in 50 mM HEPES pH 7.5. 0.01% BRIJ-35, 10 mM MgCl2, 1 mM EGTA.
The mixture is then incubated for another 60-minute at room temperature for development reaction. Finally fluorescence is read by plate reader.
To determine IC50 of a compound against EGFR, EGFR mutant and other kinases, a series of concentrations of the compound were tested for the inhibition. […] The scale utilized in Table 4 is as follows: +++ less than 100 nM, ++ 100-500 nM and + greater than 500 nM.

Sequence of BTK (Q06187 whole entry): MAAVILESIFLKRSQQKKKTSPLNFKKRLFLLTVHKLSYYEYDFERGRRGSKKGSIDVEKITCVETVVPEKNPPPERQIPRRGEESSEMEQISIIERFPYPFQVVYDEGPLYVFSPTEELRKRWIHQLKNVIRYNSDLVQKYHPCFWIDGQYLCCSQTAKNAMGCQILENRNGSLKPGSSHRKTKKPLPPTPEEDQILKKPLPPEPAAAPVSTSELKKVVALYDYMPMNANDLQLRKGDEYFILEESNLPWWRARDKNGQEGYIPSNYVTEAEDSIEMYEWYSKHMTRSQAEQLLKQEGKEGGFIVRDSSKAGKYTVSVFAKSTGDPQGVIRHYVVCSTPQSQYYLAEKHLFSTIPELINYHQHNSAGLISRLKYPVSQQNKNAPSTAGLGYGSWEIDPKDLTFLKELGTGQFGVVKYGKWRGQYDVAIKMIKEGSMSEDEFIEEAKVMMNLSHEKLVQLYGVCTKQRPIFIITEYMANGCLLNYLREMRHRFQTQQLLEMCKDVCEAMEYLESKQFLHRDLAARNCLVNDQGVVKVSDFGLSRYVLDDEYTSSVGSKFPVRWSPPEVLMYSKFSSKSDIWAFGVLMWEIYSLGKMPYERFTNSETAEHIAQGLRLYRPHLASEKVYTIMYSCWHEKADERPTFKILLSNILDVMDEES
Sequence of EGFR (ErbB1) (P00533 25-1210): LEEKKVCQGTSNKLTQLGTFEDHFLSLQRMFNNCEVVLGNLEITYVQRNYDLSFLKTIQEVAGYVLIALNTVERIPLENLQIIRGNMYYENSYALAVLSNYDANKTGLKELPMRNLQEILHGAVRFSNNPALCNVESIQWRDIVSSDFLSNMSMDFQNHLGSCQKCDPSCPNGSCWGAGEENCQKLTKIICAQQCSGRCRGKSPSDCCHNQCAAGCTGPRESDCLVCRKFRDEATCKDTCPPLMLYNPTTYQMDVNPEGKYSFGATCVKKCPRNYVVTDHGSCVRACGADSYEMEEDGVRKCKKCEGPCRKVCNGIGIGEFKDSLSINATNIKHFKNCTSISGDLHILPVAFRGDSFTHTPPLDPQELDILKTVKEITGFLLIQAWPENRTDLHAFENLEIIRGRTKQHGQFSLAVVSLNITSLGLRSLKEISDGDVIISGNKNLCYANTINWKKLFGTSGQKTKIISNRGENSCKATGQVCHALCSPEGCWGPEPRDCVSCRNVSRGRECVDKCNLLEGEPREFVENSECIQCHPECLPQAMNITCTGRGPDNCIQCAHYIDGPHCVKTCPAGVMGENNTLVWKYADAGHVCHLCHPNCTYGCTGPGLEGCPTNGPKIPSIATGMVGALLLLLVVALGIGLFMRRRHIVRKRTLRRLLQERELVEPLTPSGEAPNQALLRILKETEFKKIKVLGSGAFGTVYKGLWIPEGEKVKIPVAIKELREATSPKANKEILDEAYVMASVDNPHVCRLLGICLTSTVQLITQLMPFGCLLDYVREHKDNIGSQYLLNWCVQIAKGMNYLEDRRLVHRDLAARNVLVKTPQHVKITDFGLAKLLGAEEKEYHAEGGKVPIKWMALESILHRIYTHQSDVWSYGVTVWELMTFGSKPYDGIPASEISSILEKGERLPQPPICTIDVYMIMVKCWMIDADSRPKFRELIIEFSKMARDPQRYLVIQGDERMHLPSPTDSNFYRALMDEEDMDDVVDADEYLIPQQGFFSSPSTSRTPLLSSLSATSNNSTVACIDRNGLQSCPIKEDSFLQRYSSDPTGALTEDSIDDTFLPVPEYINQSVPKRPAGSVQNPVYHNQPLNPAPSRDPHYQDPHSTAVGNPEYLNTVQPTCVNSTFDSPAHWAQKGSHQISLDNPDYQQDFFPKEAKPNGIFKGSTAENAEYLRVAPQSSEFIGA
Sequence of EGFR (ErbB1) T790M L858R (P00533 25-1210 T790M/L858R): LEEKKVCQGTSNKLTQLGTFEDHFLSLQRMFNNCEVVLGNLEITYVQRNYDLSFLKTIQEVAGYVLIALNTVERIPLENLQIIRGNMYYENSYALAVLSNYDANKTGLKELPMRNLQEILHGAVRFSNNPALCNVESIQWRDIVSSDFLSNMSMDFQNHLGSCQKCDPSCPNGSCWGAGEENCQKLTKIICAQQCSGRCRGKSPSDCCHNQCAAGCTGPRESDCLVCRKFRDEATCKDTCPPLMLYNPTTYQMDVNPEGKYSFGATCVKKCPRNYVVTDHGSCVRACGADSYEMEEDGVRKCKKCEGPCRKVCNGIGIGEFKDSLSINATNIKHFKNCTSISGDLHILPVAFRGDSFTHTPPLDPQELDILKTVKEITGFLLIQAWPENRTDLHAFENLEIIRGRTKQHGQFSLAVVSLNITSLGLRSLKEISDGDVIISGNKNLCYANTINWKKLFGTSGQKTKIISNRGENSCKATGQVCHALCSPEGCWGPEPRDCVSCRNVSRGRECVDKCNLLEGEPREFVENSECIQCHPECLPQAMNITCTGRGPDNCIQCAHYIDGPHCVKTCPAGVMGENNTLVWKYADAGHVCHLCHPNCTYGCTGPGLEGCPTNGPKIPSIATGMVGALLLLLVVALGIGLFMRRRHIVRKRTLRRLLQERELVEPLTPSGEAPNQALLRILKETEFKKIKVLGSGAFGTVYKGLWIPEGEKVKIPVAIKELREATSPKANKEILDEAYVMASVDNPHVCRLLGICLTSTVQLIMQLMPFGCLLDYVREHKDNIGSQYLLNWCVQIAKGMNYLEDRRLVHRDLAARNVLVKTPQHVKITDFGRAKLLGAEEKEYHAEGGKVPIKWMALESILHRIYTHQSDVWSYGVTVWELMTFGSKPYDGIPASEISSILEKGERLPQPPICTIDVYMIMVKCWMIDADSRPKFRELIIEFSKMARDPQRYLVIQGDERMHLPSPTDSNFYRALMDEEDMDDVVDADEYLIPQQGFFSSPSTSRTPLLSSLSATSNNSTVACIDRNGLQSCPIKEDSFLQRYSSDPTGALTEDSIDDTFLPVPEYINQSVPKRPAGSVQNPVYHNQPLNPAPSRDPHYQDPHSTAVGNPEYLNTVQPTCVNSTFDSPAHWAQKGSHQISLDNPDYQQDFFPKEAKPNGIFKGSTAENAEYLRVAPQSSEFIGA

Row | SMILES | inhibition at 0.041 µM [1] [%] | inhibition at 0.0137 µM [2] [%] | IC50 [2] [nM] | IC50 [3] [nM] | IC50 [4] [nM] | inhibition at 0.041 µM [5] [%]
1 | C=CC(=O)Nc1cccc(-c2cccc3cnc(Nc4ccc(N5CCN(CCF)CC5)cc4)nc23)c1F [Example C061, N-(2-fluoro-3-(2-((4-(4-(2-fluoroethyl)piperazin-1-yl)phenyl)amino)quinazolin-8-yl)phenyl)acrylamide] | < 50 | > 50 | < 100 | > 500 | < 100 | 
2 | C=CC(=O)Nc1cccc(-c2cccc3cnc(Nc4ccc(N5CCN(C)CC5)cc4)nc23)c1OC [Example C063, N-(2-methoxy-3-(2-((4-(4-methylpiperazin-1-yl)phenyl)amino)quinazolin-8-yl)phenyl)acrylamide] | > 50 | > 50 | < 100 | > 500 | < 100 | 
3 | C=CC(=O)Nc1cccc(-c2cccc3cnc(Nc4ccc(N5CCN(C)CC5)cc4)nc23)c1C#N [Example C068, N-(2-cyano-3-(2-((4-(4-methylpiperazin-1-yl)phenyl)amino)quinazolin-8-yl)phenyl)acrylamide] | > 50 | > 50 | < 100 | > 500 | 100 to 500 | 
4 | C=CC(=O)Nc1cccc(-c2cccc3cnc(Nc4ccc(N5CCN(C)CC5)c(F)c4)nc23)c1 [Example C069, N-(3-(2-((3-fluoro-4-(4-methylpiperazin-1-yl)phenyl)amino)quinazolin-8-yl)phenyl)acrylamide] | > 50 | > 50 |  | < 100 | < 100 | 
5 | C=CC(=O)Nc1cccc(-c2cccc3cnc(Nc4ccc(N5CCN(C)CC5)c(Cl)c4)nc23)c1 [Example C072, N-(3-(2-((3-chloro-4-(4-methylpiperazin-1-yl)phenyl)amino)quinazolin-8-yl)phenyl)acrylamide] | < 50 | > 50 | < 100 | 100 to 500 | 100 to 500 | 
6 | C=CC(=O)Nc1cccc(-c2cccc3cnc(Nc4ccc(N5CCN(C)CC5)c(C#N)c4)nc23)c1 [Example C074, N-(3-(2-((3-cyano-4-(4-methylpiperazin-1-yl)phenyl)amino)quinazolin-8-yl)phenyl)acrylamide] | < 50 | > 50 | < 100 | 100 to 500 | 100 to 500 | 
7 | C=CC(=O)Nc1cccc(-c2cccc3cnc(Nc4ccc(OC5CN(CCF)C5)cc4)nc23)c1 [Example C078, N-(3-(2-((4-((1-(2-fluoroethyl)azetidin-3-yl)oxy)phenyl)amino)quinazolin-8-yl)phenyl)acrylamide] | > 50 | > 50 | < 100 | > 500 | < 100 | 
8 | C=CC(=O)Nc1cccc(-c2cccc3cnc(Nc4ccc(OC5CCN(C)CC5F)cc4)nc23)c1F (stereo not shown) [Example C080, N-(2-fluoro-3-(2-((4-((3-fluoro-1-methylpiperidin-4-yl)oxy)phenyl)amino)quinazolin-8-yl)phenyl)acrylamide] | > 50 | > 50 | < 100 | 100 to 500 | < 100 | 
9 | C=CC(=O)Nc1cccc(-c2c(F)ccc3cnc(Nc4ccc(N5CCN(C)CC5)cc4)nc23)c1 [Example C087, N-(3-(7-fluoro-2-((4-(4-methylpiperazin-1-yl)phenyl)amino)quinazolin-8-yl)phenyl)acrylamide] | > 50 | > 50 | < 100 | 100 to 500 | 100 to 500 | 
10 | C=CC(=O)Nc1cccc(-c2cccc3cnc(Nc4ccc(N5CCOC5=O)cc4)nc23)c1 [Example C091, N-(3-(2-((4-(2-oxooxazolidin-3-yl)phenyl)amino)quinazolin-8-yl)phenyl)acrylamide] | < 50 | < 50 |  | > 500 | 100 to 500 | 
11 | C=CC(=O)Nc1cccc(-c2cccc3cnc(Nc4ccc(NC5CCOCC5)cc4)nc23)c1 [Example C111, N-(3-(2-((4-((tetrahydro-2H-pyran-4-yl)amino)phenyl)amino)quinazolin-8-yl)phenyl)acrylamide] | < 50 | < 50 |  |  | < 100 | > 50
12 | C=CC(=O)Nc1cccc(-c2cccc3cnc(Nc4ccc(OC5CCOCC5)cc4)nc23)c1 [Example C112, N-(3-(2-((4-((tetrahydro-2H-pyran-4-yl)oxy)phenyl)amino)quinazolin-8-yl)phenyl)acrylamide] | < 50 | < 50 |  |  | < 100 | > 50
13 | C=CC(=O)Nc1cccc(-c2cccc3cnc(Nc4ccc(O[C@H]5CCOC5)cc4)nc23)c1 [Example C113, (S)-N-(3-(2-((4-((tetrahydrofuran-3-yl)oxy)phenyl)amino)quinazolin-8-yl)phenyl)acrylamide] | < 50 | < 50 |  |  | < 100 | > 50
14 | C=CC(=O)Nc1cccc(-c2cccc3cnc(Nc4ccc(N[C@H]5CCOC5)cc4)nc23)c1 [Example C114, (S)-N-(3-(2-((4-((tetrahydrofuran-3-yl)amino)phenyl)amino)quinazolin-8-yl)phenyl)acrylamide] | < 50 | < 50 |  |  | < 100 | > 50
15 | C=CC(=O)Nc1cccc(-c2cccc3cnc(Nc4ccc(N[C@@H]5CCOC5)cc4)nc23)c1 [Example C115, (R)-N-(3-(2-((4-((tetrahydrofuran-3-yl)amino)phenyl)amino)quinazolin-8-yl)phenyl)acrylamide] | < 50 | < 50 |  |  | 100 to 500 | > 50
16 | C=CC(=O)Nc1cccc(-c2cccc3cnc(Nc4ccc(N5CCN(C)C(=O)C5)cc4)nc23)c1 [Example C116, N-(3-(2-((4-(4-methyl-3-oxopiperazin-1-yl)phenyl)amino)quinazolin-8-yl)phenyl)acrylamide] | < 50 | < 50 |  |  | 100 to 500 | > 50
17 | C=CC(=O)Nc1cccc(-c2cccc3cnc(Nc4ccc(N5CCNC(=O)C5)cc4)nc23)c1 [Example C117, N-(3-(2-((4-(3-oxopiperazin-1-yl)phenyl)amino)quinazolin-8-yl)phenyl)acrylamide] | < 50 | < 50 |  |  | 100 to 500 | > 50
18 | C=CC(=O)Nc1cccc(-c2cccc3cnc(Nc4ccc(O[C@@H]5CCOC5)cc4)nc23)c1 [Example C119, (R)-N-(3-(2-((4-((tetrahydrofuran-3-yl)oxy)phenyl)amino)quinazolin-8-yl)phenyl)acrylamide] | < 50 | < 50 |  |  | < 100 | > 50
19 | C=CC(=O)Nc1cccc(-c2cccc3cnc(Nc4ccc(N[C@@H]5CCN(C)C5)cc4)nc23)c1 [Example C129, (R)-N-(3-(2-((4-((1-methylpyrrolidin-3-yl)amino)phenyl)amino)quinazolin-8-yl)phenyl)acrylamide] | > 50 | > 50 | < 100 | < 100 | < 100 | 
20 | C=CC(=O)Nc1cccc(-c2cccc3cnc(Nc4ccc(OC5CCN(CCF)CC5)cc4)nc23)c1 [Example C136, N-(3-(2-((4-((1-(2-fluoroethyl)piperidin-4-yl)oxy)phenyl)amino)quinazolin-8-yl)phenyl)acrylamide] | < 50 | > 50 |  | < 100 | < 100 | 
21 | C=CC(=O)Nc1cccc(-c2cccc3cnc(Nc4ccc(NC5CCN(CCF)CC5)cc4)nc23)c1 [Example C138, N-(3-(2-((4-((1-(2-fluoroethyl)piperidin-4-yl)amino)phenyl)amino)quinazolin-8-yl)phenyl)acrylamide] | > 50 | > 50 | < 100 | 100 to 500 | < 100 | 
